In patent US12030908B2, “Antimicrobial compounds, compositions, and uses thereof” (Lakewood Amedex, Inc., priority 2017, dated 2024):
“And” between values parts separate entries of the source, which are not always exact repeats. Identical values can stand only once.

Assays:
[1] = Body weight in the Aspergillus fumigatus lung infection model (Example 24); format: in vivo, BALB/c mice; settings: Part A
[2] = tested on: Pseudomonas aeruginosa (ATCC27853); test: Neutropenic lung infection model in mice, aerosol treatment (Example 23); format: in vivo, BALB/c mice; settings: for Mean ± SD (Log10 CFU/g lung) / Log10 CFU/g lung: 10% aerosol, 40 min, 24 h PI; for Log10 CFU/g lung: individual mice
Description: Neutropenic, BALB/c female mice, all of which were from 6 to 8 weeks of age, were infected intranasally with Pseudomonas aeruginosa (ATCC27853). Twenty-four hours post infection; animals were treated intra-nasally by nebulization with Nu-8 (10% nebulized for twenty minutes, twice). At two, four and six hours post treatment, animals were terminated; lung tissues were collected to determine the bacterial load.
The mice were separated into cohorts in accordance with Table 11.
On day −4 (four days before the date of infection), each mouse was dosed with a single intraperitoneal injection of cyclophosphamide equivalent to 150 mg/kg and returned to its cage. On day −1 (one day before infection) each mouse received a dose equivalent to 100 mg/kg of cyclophosphamide.
On day −1, an aliquot from glycerol stocks of P. aeruginosa (ATCC27853) was thawed, inoculated into fresh Casein Soybean Digest Broth (CSDB) and incubated overnight at 37 C.
On the day of infection (Day 0), the overnight culture was centrifuged and the cells were pelleted and resuspended in sterile normal saline to obtain approximately 10^9 CFU/ml P. aeruginosa, which was used for infection. The inoculum was serially diluted ten-fold in sterile CSDB broth and 0.05 ml of six dilutions was plated onto CSD Agar plates to determine the viable count (CFU/ml) of inoculum.
Animals were divided into different groups as specified in the experimental design (TABLE 11). Infections were conducted in a biological safety cabinet, with appropriate personnel protection. Mice were placed into an induction chamber and anesthesia was induced by exposing the animals to 3%-5% Isoflurane in an oxygen flow set at approximately 1 liter per minute (LPM). Once the animals were in a sufficiently deep plane of anesthesia, they were removed and infected. Infection was done by instilling 0.02 ml (containing ˜1×10^9 CFU/ml) intra-nasally. 10 μl was instilled into each nostril of the anesthetized animal (˜2×10^7 CFU/animal). A gentle shaking/mixing of inoculum between two animals was followed for uniform distribution.
The vehicle used for the test compound was saline (0.9% NaCl adjusted to pH 3.5 with citric acid). To make 10% solution, 15 g Nu-8 was weighed and dissolved in 145 ml of the saline and the pH of the solution was adjusted to 3.5 with citric acid (0.1 M) in a final volume of 150 ml.
Treatment was initiated twenty four hours post infection. Test formulations were administered by aerosol route with nose only apparatus connected to a nebulizer (Omron Ne-C28 Compressor Nebulizer with a volume capacity of 15 ml, Particle size 3 μm, nebulization rate: 0.5 ml/min, and Aerosol output rate: 0.09 ml/min. At the given aerosol output rate of 0.09 ml/min, a total of 6 animals at the port, each animal will receive 15 μl/min. In 40 min, a total of 60 mg in 600 μl will be delivered to each animal). The formulation prepared previously was placed into the nebulizer fluid cup; animals were placed in the nose only apparatus and the entire system was placed inside a Class II Biosafety Cabinet. Animals received nebulization for 20 min, followed by a 30-minute rest and then an additional 20-minute exposure at the same dose concentration (the flow rate and percentage of test material available at the inhalation port was 16% of the initial concentration in the nebulizer if the test compound is in solution).
Groups of animals were euthanized at 2, 4 and 6 hours post treatment, as specified in experimental design, by an overdose of CO2 in an appropriate exposure chamber.
The euthanized animals were dipped into 70% ethanol for surface decontamination. Lungs were aseptically excised, weighed, placed in a 2 ml centrifuge tube containing 1 ml of sterile CSDB broth, and homogenized (Omni Tip (220THB handheld)). Serial ten-fold dilutions of the lung homogenates were prepared in sterile CSDB broth and 0.05 ml of four dilutions for each lung was plated onto CSDA agar plates. […]

SMILES: CCCCOP(=O)(O)OC[C@H]1O[C@@H](n2ccc(N)nc2=O)C[C@@H]1OP(=O)(O)OCCCC [Nu-8, sodium ((2R,3S,5R)-5-(4-amino-2-oxopyrimidin-1(2H)-yl)-3-((butoxyoxidophosphor-yl)oxy)tetrahydrofuran-2-yl)methyl butyl phosphate]
- Body Weight (g) Mean ± SD ([1]; 3 doses, once daily for 3 days, Day 0): 25.17 ± 0.75 g
- Body Weight (g) Mean ± SD ([1]; 3 doses, once daily for 3 days, Day 1): 24.50 ± 0.55 g
- Body Weight (g) Mean ± SD ([1]; 3 doses, once daily for 3 days, Day 2): 23.17 ± 0.75 g
- Body Weight (g) Mean ± SD ([1]; 3 doses, once daily for 3 days, Day 3 (n = 3)): 22.33 ± 0.58 g
- Body Weight (g) Mean ± SD ([1]; 5 doses, once daily for 5 days, Day 0): 25.33 ± 0.82 g
- Body Weight (g) Mean ± SD ([1]; 5 doses, once daily for 5 days, Day 1): 24.33 ± 0.52 g
- Body Weight (g) Mean ± SD ([1]; 5 doses, once daily for 5 days, Day 2): 23.33 ± 0.52 g
- Body Weight (g) Mean ± SD ([1]; 5 doses, once daily for 5 days, Day 3 (n = 3)): 22.67 ± 0.58 g
- Body Weight (g) Mean ([1]; 5 doses, once daily for 5 days, Day 4 (n = 2)): 22.50 g
- Body Weight (g) Mean ([1]; 5 doses, once daily for 5 days, Day 5 (n = 2)): 22.00 g
- Body Weight (g) Mean ± SD ([1]; single dose group, Day 0): 25.50 ± 0.55 g
- Body Weight (g) Mean ± SD ([1]; single dose group, Day 1): 24.17 ± 0.41 g
- change in mean body weights ([1]; vehicle and treatment groups): Decreases in mean body weights were observed
- Mean ± SD (Log10 CFU/g lung) ([2]; 2 h post end of treatment): 4.92 ± 0.19 Log10 CFU/g lung
- Log10 CFU/g lung ([2]; 2 h post end of treatment): 4.89 Log10 CFU/g lung and 4.76 Log10 CFU/g lung and 4.94 Log10 CFU/g lung and 4.98 Log10 CFU/g lung and 5.24 Log10 CFU/g lung and 4.70 Log10 CFU/g lung
- Mean ± SD (Log10 CFU/g lung) ([2]; 4 h post end of treatment): 4.82 ± 0.26 Log10 CFU/g lung
- Log10 CFU/g lung ([2]; 4 h post end of treatment): 4.51 Log10 CFU/g lung and 5.20 Log10 CFU/g lung and 5.02 Log10 CFU/g lung and 4.64 Log10 CFU/g lung (2×) and 4.88 Log10 CFU/g lung
- Mean ± SD (Log10 CFU/g lung) ([2]; 6 h post end of treatment): 4.68 ± 0.26 Log10 CFU/g lung
- Log10 CFU/g lung ([2]; 6 h post end of treatment): 4.58 Log10 CFU/g lung and 4.53 Log10 CFU/g lung and 5.16 Log10 CFU/g lung and 4.41 Log10 CFU/g lung and 4.60 Log10 CFU/g lung and 4.78 Log10 CFU/g lung
- antibacterial activity vs vehicle control at 2 h and 4 h ([2]; 10%, 2, 4 and 6 hours post administration, p<0.05): significant antibacterial activity
- animal condition during the study period ([2]; all groups): no abnormalities were detected
